Assay results: PubChem BioAssay AID1333 (NMMLSC, 2008)

Molecular target: Cell division control protein 42 homolog (Homo sapiens) (UniProt P60953)
Experiment: inhibition of fluorescent GTP binding to constitutively active Cdc42 – biochemical, multiplex bead flow cytometry, Bodipy-FL-GTP, dose response (AID 1333);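 further: potency of compounds that compete with and reduce fluorescent GTP binding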
Details: bead-based flow cytometry

## O=C(C#CC1CCCCC1)c1ccc([N+](=O)[O-])cc1
  EC50: 45.9 µM

## O=C(C#Cc1ccccc1)c1cccc([N+](=O)[O-])c1
  EC50: 13.5 µM

## CCn1nc(/C=C/c2ccccc2)nc2c(=O)n(C)c(=O)nc1-2
  EC50: 1.44 µM

## O=C(O)/C=C/c1cn(Cc2ccccc2)nc1-c1cccs1
  EC50: 2.18 µM

## Cc1cc(C(=O)Cn2nc(C(=O)O)c3ccccc3c2=O)c(C)n1-c1ccc(OC(F)F)cc1
  EC50: 4.89 µM

## NS(=O)(=O)c1ccc(N2N=C(c3ccccc3)CC2c2cccc(F)c2)cc1 (configuration not stated)
  EC50: 9.59 µM

## Cc1ccc(NC(=O)C2=C(c3ccccc3)S(=O)(=O)CCS2(=O)=O)cc1
  EC50: 58.7 µM

## COc1cccc(-n2nnnc2S(C)(=O)=O)c1
  EC50: 15.4 µM

## CC(=O)c1ccc(C#CC(=O)c2ccc([N+](=O)[O-])cc2)cc1
  EC50: 0.989 µM

## O=C(O)c1ccccc1NCCc1ccc(Cl)cc1
  EC50: 0.885 µM

## CCCc1nc2c(=O)n(C)c(=O)nc-2n(C)n1
  EC50: 1.77 µM

## CCOc1ccc(/C=C2\SC(N3CCc4ccccc4C3)=NC2=O)cc1
  EC50: 16.5 µM

## Cc1cc(C)c(C)c(C(=O)c2ccccc2C(=O)O)c1C
  EC50: 4.95 µM

## O=C(O)c1cc(Sc2ccc(Cl)cc2)nc2ccccc12
  EC50: 18.7 µM

## N#Cc1c(-c2ccccc2)nc(SCC(=O)Nc2ccccc2)[nH]c1=O
  EC50: 1.66 µM

## COc1cccc(NC(=O)COC(=O)/C=C/c2ccc(Cl)cc2Cl)c1
  EC50: 3.53 µM

## COc1ccc(-c2cc(C#N)nc(N3CCNCC3)n2)cc1
  EC50: 27.1 µM

## CC(C)C(NCc1c(Cl)cccc1Cl)C(=O)O (configuration not stated)
  EC50: 5.85 µM

## COc1ccc(C2CC(c3ccccc3)=NN2c2ccc(S(N)(=O)=O)cc2)cc1 (configuration not stated)
  EC50: 8.04 µM

## O=C(Nc1ccccc1)C1=C(c2ccccc2)S(=O)(=O)CCS1(=O)=O
  EC50: 43.9 µM

## OC(CNCCc1ccc(Cl)cc1)COc1ccc2ccccc2c1 (configuration not stated)
  EC50: 11.3 µM

## O=C(C#Cc1ccc(F)cc1)c1ccc([N+](=O)[O-])cc1
  EC50: 3.55 µM

## CCc1ccc(NS(=O)(=O)c2ccc3[nH]cc(C(=O)N4CCc5ccccc54)c(=O)c3c2)cc1
  EC50: 50.1 µM

## Cc1ccc(C)c(OCCn2cc(C(=O)O)c3ccccc32)c1
  EC50: 0.358 µM

## CCCN1C(=O)/C(=C/C=C2\N(CC)c3ccccc3C2(C)C)SC1=S
  EC50: 5.59 µM

## Cc1nc2c(=O)n(C)c(=O)nc-2n(C)n1
  EC50: 1.61 µM

## O=C(O)c1ccccc1Sc1ncnc2sc3c(c12)CCC3
  EC50: 1.84 µM

## Cc1ccc(SC(CC(=O)c2ccc(C(C)(C)C)cc2)C(=O)O)cc1 (configuration not stated)
  EC50: 5.11 µM

## COC(=O)c1cccnc1SCCc1ccccc1
  EC50: 24.2 µM

## O=C(Nc1nnc(-c2ccc3c(c2)OCCO3)o1)c1ccc(Cc2ccccc2)cc1
  EC50: 2.79 µM

## O=C(NCc1ccc2c(c1)OCO2)c1ccc(CSCc2cccc(Cl)c2)o1
  EC50: 20.6 µM

## Cc1ccc(-n2c(-c3cnccn3)n[nH]c2=S)c(Br)c1
  EC50: 53.8 µM

## Cc1cccc2cc(CN(Cc3cccs3)C(c3nnnn3C3CCCC3)C(C)C)c(=O)[nH]c12 (configuration not stated)
  EC50: 1.63 µM

## CCOC(=O)c1cc([N+](=O)[O-])c([N+](=O)[O-])cc1NC(C)=O
  EC50: 7.18 µM

## O=C(NCc1cccs1)c1cccnc1C(=O)O
  EC50: 4.31 µM

## Cc1nn(Cc2ccccc2)c(Cl)c1C(=O)O
  EC50: 13.9 µM

## CS(=O)(=O)c1ccc(C(=O)OCC(=O)NC(=O)C2CCCCC2)cc1[N+](=O)[O-]
  EC50: 12.9 µM
